The IC50 is the concentration needed to halve the response being measured.

The target in the test is T1, telomerase (MCF-7 cell lysates) (Homo sapiens, UniProt O14746).
T1 construct: endogenous in cells; host or cells: MCF-7
The experiment in a line: TRAP assay in cell lysates (PCR-based telomerase activity assay). The format is biochemical. The conditions noted are these: TRAP assay in MCF7 cell lysate in vitro; read-out: IC50. The source says:
In developing a preliminary structural activity relationship (SAR) for the chrologs, we divided the structure of the pyran into four main components: (1)C-2 substituents (carboxylic acid of chrolactomycin); (2) C-6 substituents (chrolactomycin macrolide loop); (3) C-3 substituents (fused γ-lactone of chrolactomycin) and (4) inclusion of the exocyclic methylene group. We carried out systematic modifications of each structural unit and evaluated the effects on telomerase activity as measured by a PCR-based telomerase activity assay (TRAP assay).^16
Telomeric Repeat Amplification Protocol Assay. The telomeric repeat amplification protocol (TRAP) assay was performed using the TRAPeze RT Telomerase Detection Kit (EMD Millipore) and iTaq DNA polymerase (Bio-Rad) according to the manufacturer's protocol.
Cell Lysate TRAP Analysis. MCF-7, HeLa, ACHN, MDA-MB231 and A549 cells were cultured in DMEM media supplemented with 10% Fetal Bovine Serum (FBS), 1% pen/strep and with 5% CO2 and 37° C. Cells were plated in 2×T75 flasks and cultured for 3 days. Flasks were rinsed twice with PBS and treated with 0.05% trypsin-EDTA (Thermo Fisher) to detach cells. […] Cell extracts were transferred to microcentrifuge tubes, 200 μl/tube, and centrifuged at 12,000×g for 20 min at 4° C. to remove cell debris. Stock solutions of compounds were made in DMSO with a concentration of 100 mM and a […] dilution was performed in DMSO in a 96-well plate to produce compound solutions of 100, 10, 1, 0.1, 0.01, and 0.001 mM (1000× of the final concentration). The 1000× stock solutions of the compound samples were transferred to a 96-well plate using the Echo 550 (Labcyte) and then diluted with the cell extracts to yield final compound concentrations of 100, 10, 1, 0.1, 0.01, and 0.001 μM. The plate was covered and shaken at room temperature for 30 min. For TRAPeze reactions, a “master mix” was prepared according to the TRAPeze protocol, containing 5 μl of the TRAPeze reaction mix; 0.4 μl Taq polymerase; 17.6 μl PCR grade, nuclease-free water. The master mix and treated cell extracts were transferred using the Mosquito Crystal Liquid Handling System (TTP Labtech) into separate wells in a white, 384-well RT-PCR plate. Each well contained 1.2 μl of the master mix and 1.2 μl of the treated cell extract to give a final volume of 2.4 μl, with two duplicates for each sample. The RT-PCR plate was then sealed and centrifuged for 5 min. A sample containing only CHAPS Lysis Buffer was included as negative control. The TSR8 standards were included to generate a standard curve. Samples were amplified in a CFW384 RT-PCR (BioRad) detection system with PCR parameters of 30 min at 30° C. for 1 cycle, 2 min at 95° C. for 1 cycle, and then 45 cycles of 15 s at 94° C., 60 s at 59° C., and 10 s at 45° C. Real-time fluorescent data was obtained during the 10 s at 45° C. step. The number of cycles at which the fluorescence level reached a threshold (Ct) was averaged between the duplicates for each sample. Using a calibration curve obtained from the TSR8 standards, a linear equation was obtained to convert the Ct values into arbitrary telomerase activity units, which were plotted as a function of compound concentration to construct dose-response curves and calculate IC50.

T1 sequence (O14746 whole entry): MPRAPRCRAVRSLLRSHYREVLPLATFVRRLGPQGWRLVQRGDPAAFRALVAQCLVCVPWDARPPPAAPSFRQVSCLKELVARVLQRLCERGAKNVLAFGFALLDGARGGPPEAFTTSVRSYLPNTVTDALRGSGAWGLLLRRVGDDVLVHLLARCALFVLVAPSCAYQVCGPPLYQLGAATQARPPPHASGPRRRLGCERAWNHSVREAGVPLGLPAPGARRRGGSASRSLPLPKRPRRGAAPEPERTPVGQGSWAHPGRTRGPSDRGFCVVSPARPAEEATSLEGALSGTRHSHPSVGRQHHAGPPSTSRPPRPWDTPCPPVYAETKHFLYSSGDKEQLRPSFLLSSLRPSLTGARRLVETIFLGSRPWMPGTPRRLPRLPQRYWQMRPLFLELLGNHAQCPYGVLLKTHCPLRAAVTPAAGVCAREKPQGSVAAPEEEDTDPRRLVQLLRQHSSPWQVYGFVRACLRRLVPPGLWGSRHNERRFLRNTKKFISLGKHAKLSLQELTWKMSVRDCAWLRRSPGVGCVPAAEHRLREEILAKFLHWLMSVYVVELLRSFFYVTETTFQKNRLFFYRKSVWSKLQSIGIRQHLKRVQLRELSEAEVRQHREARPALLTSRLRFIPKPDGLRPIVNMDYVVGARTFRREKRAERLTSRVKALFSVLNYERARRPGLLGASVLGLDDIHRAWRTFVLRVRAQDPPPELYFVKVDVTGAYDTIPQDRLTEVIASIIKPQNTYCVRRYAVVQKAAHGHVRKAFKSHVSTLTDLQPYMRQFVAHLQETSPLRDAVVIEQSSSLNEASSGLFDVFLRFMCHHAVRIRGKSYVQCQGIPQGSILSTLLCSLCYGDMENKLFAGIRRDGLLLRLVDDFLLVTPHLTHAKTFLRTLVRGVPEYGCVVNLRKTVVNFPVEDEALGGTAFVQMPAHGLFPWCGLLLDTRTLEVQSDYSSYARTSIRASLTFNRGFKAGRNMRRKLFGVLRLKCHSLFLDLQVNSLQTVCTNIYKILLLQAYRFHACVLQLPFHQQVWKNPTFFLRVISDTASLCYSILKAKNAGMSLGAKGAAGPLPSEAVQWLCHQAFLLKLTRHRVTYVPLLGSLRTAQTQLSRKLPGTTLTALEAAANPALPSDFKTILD
T1 sequence (O60832 whole entry partner): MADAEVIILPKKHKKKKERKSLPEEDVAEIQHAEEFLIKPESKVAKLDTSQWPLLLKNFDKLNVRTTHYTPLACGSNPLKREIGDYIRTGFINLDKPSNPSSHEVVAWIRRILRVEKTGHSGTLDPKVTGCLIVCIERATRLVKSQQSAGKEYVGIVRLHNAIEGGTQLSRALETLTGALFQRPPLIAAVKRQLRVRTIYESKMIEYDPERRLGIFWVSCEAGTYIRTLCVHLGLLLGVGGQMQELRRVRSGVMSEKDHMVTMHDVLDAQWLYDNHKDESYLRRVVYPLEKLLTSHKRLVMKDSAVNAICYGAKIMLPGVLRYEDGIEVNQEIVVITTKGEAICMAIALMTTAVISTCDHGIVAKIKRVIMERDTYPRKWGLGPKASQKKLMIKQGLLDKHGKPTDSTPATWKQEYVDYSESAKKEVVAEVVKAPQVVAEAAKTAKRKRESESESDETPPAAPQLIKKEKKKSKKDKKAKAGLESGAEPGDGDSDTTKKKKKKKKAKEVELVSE
T1 sequence (Q9NPE3 whole entry partner): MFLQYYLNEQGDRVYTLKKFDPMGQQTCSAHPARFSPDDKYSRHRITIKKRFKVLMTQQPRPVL
T1 sequence (Q9NX24 whole entry partner): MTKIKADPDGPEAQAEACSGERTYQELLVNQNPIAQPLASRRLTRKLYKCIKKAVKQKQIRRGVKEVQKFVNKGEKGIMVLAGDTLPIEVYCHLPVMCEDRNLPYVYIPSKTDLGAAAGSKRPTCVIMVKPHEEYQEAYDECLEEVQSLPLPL
T1 sequence (Q9NY12 whole entry partner): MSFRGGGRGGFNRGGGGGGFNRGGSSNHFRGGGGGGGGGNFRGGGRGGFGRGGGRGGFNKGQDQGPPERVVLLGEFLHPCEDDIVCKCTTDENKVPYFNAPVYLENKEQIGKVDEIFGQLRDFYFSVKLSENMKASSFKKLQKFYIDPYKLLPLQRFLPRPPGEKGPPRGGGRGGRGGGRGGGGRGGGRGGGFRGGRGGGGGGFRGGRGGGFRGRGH
T1 sequence (Q9BUR4 whole entry partner): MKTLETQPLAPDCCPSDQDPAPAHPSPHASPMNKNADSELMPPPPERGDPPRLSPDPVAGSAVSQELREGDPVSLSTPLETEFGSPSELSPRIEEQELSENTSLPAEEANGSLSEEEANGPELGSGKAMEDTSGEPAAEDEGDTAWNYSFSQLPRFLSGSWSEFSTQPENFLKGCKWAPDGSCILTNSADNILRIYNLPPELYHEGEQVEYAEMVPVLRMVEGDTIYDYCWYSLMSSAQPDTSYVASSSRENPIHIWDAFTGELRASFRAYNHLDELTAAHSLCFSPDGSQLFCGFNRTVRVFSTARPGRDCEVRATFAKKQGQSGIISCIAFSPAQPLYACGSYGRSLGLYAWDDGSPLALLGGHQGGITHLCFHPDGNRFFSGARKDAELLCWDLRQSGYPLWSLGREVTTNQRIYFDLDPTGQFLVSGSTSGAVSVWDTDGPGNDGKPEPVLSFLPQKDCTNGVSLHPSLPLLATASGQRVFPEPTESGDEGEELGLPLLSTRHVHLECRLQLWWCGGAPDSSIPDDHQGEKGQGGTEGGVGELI

Turning to `C=C1C(=O)[C@](C)(C(=O)OC)[C@H](CCc2cn(Cc3ccc(F)cc3F)nn2)O[C@@H]1C` [NU-1, methyl (2S,3R,6R)-2-(2-(1-(2,4-difluorobenzyl)-1H-1,2,3-triazol-4-yl)ethyl)-3,6-dimethyl-5 methylene-4-oxotetrahydro-2H-pyran-3-carboxylate], the half-inhibitory concentration (IC50) amounted to 0.09 µM.

These data come from patent US11518750B2, “3-methylideneoxan-4-one compounds and substituted derivatives thereof as inhibitors of telomerase” (NORTHWESTERN UNIVERSITY, priority 2019, dated 2022).
